Data on 45 molecules can be found in ChEMBL document CHEMBL1140746, “Cdc7 kinase inhibitors: pyrrolopyridinones as potential antitumor agents. 1. Synthesis and structure-activity relationships” (J Med Chem, 2008).

Molecules are shown by their SMILES. Some results are limits rather than exact numbers.

In test [1] the target is Cell division cycle 7-related protein kinase (Homo sapiens, UniProt O00311).
Another test deals with A2780. The test can be described thus: Antiproliferative activity against human A2780 cells after 72 hrs. Format: functional, cell-based. As to conditions: A2780, 72 h.

Sequence of Cell division cycle 7-related protein kinase (O00311 whole entry): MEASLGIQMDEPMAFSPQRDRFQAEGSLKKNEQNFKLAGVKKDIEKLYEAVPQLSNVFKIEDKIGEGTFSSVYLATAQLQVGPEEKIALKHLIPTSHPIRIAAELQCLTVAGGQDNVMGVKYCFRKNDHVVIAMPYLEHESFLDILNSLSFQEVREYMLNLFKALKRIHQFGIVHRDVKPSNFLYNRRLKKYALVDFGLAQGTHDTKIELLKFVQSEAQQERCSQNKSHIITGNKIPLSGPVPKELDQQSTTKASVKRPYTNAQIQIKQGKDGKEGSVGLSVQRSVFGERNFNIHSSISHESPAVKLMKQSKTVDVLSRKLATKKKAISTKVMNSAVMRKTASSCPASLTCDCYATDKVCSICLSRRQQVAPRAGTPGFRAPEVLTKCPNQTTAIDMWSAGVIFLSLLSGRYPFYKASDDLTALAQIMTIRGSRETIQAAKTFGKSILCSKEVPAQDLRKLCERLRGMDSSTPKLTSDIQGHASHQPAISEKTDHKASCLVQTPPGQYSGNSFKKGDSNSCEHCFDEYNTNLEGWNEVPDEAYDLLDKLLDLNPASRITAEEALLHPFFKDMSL

With `O=C1NCCc2[nH]c(-c3ccncn3)cc21`, the concentration for half-maximal inhibition (IC50) (commonly the concentration that gives 50% inhibition) stood at 20 nM in test [1] and 5500 nM with A2780.
Molecule `O=C1NCCc2c1cc(-c1ccncc1)n2CC(F)(F)F` returned an IC50 in test [1] of 160 nM.
On to `CCn1c(-c2ccnc(N)n2)cc2c1CCNC2=O`, for which, in test [1], the half-inhibitory concentration (IC50) was found to be 8 nM.
In test [1], `O=C1NCCc2[nH]c(-c3ccnc(NCc4ccccc4)n3)cc21` had a half-maximal inhibitory concentration (IC50) of 220 nM.
Still for that read-out and setting: with `CC(C)C(=O)Nc1nccc(-c2cc3c([nH]2)CCNC3=O)n1` the figure was 1400 nM.
`Nc1nccc(-c2cc3c(n2CC2CC2)CCNC3=O)n1`: in test [1], 4 nM corresponded to half-maximal inhibition (IC50).
The same measure, in the same setting: under `Nc1nccc(-c2cc3c(n2CCF)CCNC3=O)n1` stands 3 nM.
As for `CC(=O)Nc1nccc(-c2cc3c([nH]2)CCNC3=O)n1`, the IC50 in test [1] was 323 nM.
Turning to `O=C1NCCn2nc(-c3ccncc3)cc21`, half-maximal inhibition in test [1] (IC50) required 210 nM.
`O=C1NCCc2oc(-c3ccncc3)cc21` showed a concentration for half-maximal inhibition (IC50) in test [1] of 201 nM.
On to `O=C1NCc2[nH]c(-c3ccncc3)cc21`, for which the results for the IC50 (in test [1]; in the test on A2780) were 27 nM and 4700 nM, respectively.
Regarding `O=C1NCCCc2[nH]c(-c3ccncc3)cc21`, in test [1], the concentration for half-maximal inhibition (IC50) stood at 158 nM.
Still for that read-out and setting: with `CCn1c(-c2ccncc2)cc2c1CCNC2=O` the figure was 67 nM; with `O=C1NCCc2c1cc(-c1ccncc1)n2CCO`, 3300 nM; with `Nc1nccc(-c2cc3c(n2CCO)CCNC3=O)n1`, 138 nM.
Same read-out and setting: under `CC(C)n1c(-c2ccnc(N)n2)cc2c1CCNC2=O` stands 42 nM.
Turning to `CCCCn1c(-c2ccnc(N)n2)cc2c1CCNC2=O`, the 50% inhibitory concentration (IC50) in test [1] was 23 nM.
Take `Nc1nccc(-c2cc3c(n2-c2ccccc2)CCNC3=O)n1`: in test [1], the IC50 was above 5000 nM.
`Nc1nccc(-c2cc3c(n2Cc2ccccc2)CCNC3=O)n1`: in test [1], the IC50 turned out to be 290 nM.
In test [1], `CCCNc1nccc(-c2cc3c([nH]2)CCNC3=O)n1` displayed a half-inhibitory concentration (IC50) of 259 nM.
Turning to `CC(C)CNc1nccc(-c2cc3c([nH]2)CCNC3=O)n1`, the concentration for half-maximal inhibition (IC50) in test [1] is 636 nM.
On the same count and under the same terms, with `O=C1NCCc2[nH]c(-c3ccnc(NCC4CCCCC4)n3)cc21` the figure was 655 nM.
The same measure, in the same setting: with `Cn1c(-c2ccncc2)cc2c1CCNC2=O` the figure was 404 nM.
With `O=C1NCCc2[nH]c(-c3ccncc3F)cc21`, the IC50 in test [1] turned out to be 9 nM; in the test with A2780 it was 200 nM.
The matching figures for `O=C1NCCc2[nH]c(-c3ccnc4[nH]ccc34)cc21`: 14 nM and above 10000 nM.
Regarding `Nc1ncc(Br)c(-c2cc3c([nH]2)CCNC3=O)n1`, the values for the IC50 (in test [1]; in the test with A2780) were 4 nM and 800 nM, respectively.
As to `Nc1nccc(-c2c[nH]c3c2C(=O)NCC3)n1`, the IC50 in test [1] was above 5000 nM.
As for `O=C1NCCc2[nH]c(-c3ncnc4[nH]cnc34)cc21`, in test [1], the IC50 came to 178 nM.
Molecule `O=C1NCCc2[nH]c(-c3ccccc3)cc21` showed an IC50 in test [1] above 5000 nM.
Same read-out and setting: with `O=C1NCCc2[nH]ccc21` the figure was above 5000 nM.
As to `Nc1cc(-c2cc3c([nH]2)CCNC3=O)ccn1`, the figures for the IC50 (in test [1]; in the test with A2780) were 28 nM and above 10000 nM, respectively.
Consider `O=C1NCCc2[nH]c(-c3cccnc3)cc21`, for which, in test [1], the IC50 is above 5000 nM.
For the molecule `Cc1c(-c2ccncc2)[nH]c2c1C(=O)NCC2`, in test [1], inhibition was half-maximal at 45 nM (IC50).
Still for that read-out and setting: under `O=CN1CCc2[nH]c(-c3ccncc3)cc2C1=O` stands 863 nM; under `Nc1nccc(-c2cc3c(n2C2CCCCC2)CCNC3=O)n1`, above 5000 nM; under `Cn1c(-c2ccnc(N)n2)cc2c1CCNC2=O`, 88 nM.
`CCCn1c(-c2ccnc(N)n2)cc2c1CCNC2=O` returned an IC50 in test [1] of 12 nM.
Molecule `Nc1nccc(-c2cc3c(n2C2CCC2)CCNC3=O)n1` yielded an IC50 in test [1] of 14 nM.
In the case of `O=C1NCCc2[nH]c3c(ccc4cnccc43)c21`, the half-maximal inhibitory concentration (IC50) in test [1] worked out at 2 nM; with A2780, 100 nM.
Molecule `CC(C)Cn1c(-c2ccnc(N)n2)cc2c1CCNC2=O` came in with a half-inhibitory concentration (IC50) in test [1] of 13 nM.
The same measure, in the same setting: under `Nc1nccc(-c2cc3c(n2CCCC(F)(F)F)CCNC3=O)n1` stands 47 nM; under `CN1CCC(n2c(-c3ccnc(N)n3)cc3c2CCNC3=O)CC1`, 120 nM; under `O=C(Nc1nccc(-c2cc3c([nH]2)CCNC3=O)n1)c1ccccc1`, 262 nM.
The same measure, in the same setting: under `Nc1nccc(-c2cc3c([nH]2)CCNC3=O)n1` stands 7 nM.
Molecule `Nc1nccc(-c2cc3c(n2CC(F)(F)F)CCNC3=O)n1` yielded an IC50 in test [1] of 5 nM.
